Data as given in patent US7056655B2, “Methods for monitoring and guiding therapeutic suppression of parathyroid hormone in renal patients having secondary hyperparathyroidism” (Scantibodies Laboratory, Inc., priority 2001, dated 2006).

What was measured:
Format in all cases: in vivo
PTH agonist = test: Clinical trial in ESRD patients: PTH agonist assay (Scantibodies) on blood samples; conditions: for PTH agonist decrease: median values; for PTH agonist: median of ninety patients, 5.5 μg intravenously every three days
Protocol: (§1) A clinical trial was held for ninety ESRD patients. Each patient had been receiving vitamin D suppressant therapy in accordance with the manufacturer's guidelines. Each patient was removed from the therapy for a washout period of four weeks, and this was confirmed by a rise in PTH measurements after removal of the therapeutic. PTH maxacalcitol (made by Chugai Pharmaceutical Corporation of Tokyo, Japan) suppressant therapy was started after the washout at a constant administration of 5.5 μg intravenously every three days. Blood samples were obtained from each patient after the washout (week 0), six weeks after therapy restart (week 6), and twelve weeks after therapy restart (week 12). The samples were assayed for PTH agonist levels and PTH antagonist levels using the PTH agonist assay and total PTH assay made by Scantibodies Laboratory, Inc. The samples were assayed for bone specific alkaline phosphatase using a commercially available immunoassay from Hybritech, Inc. of San Diego, Calif.
(§2) The results of the assays for the ninety patients are shown in FIG. 2 and the following table as median values: […]

[1] = system: bone specific alkaline phosphatase; test: Clinical trial in ESRD patients: bone specific alkaline phosphatase immunoassay (Hybritech); conditions: for Alkaline Phosphatase decrease: median values; for Alkaline Phosphatase: median of ninety patients, 5.5 μg intravenously every three days
Protocol: as §1, §2

Total PTH = test: Clinical trial in ESRD patients: total PTH assay (Scantibodies) on blood samples; conditions: for Total PTH decrease: median values; for Total PTH: median of ninety patients, 5.5 μg intravenously every three days
Protocol: as §1, §2

PTH antagonist = test: Clinical trial in ESRD patients: PTH antagonist level (total PTH minus PTH agonist); conditions: for PTH antagonist decrease: 6 weeks versus 0 weeks; for PTH antagonist decrease / PTH antagonist increase: median values; for PTH antagonist increase: 12 weeks versus 6 weeks; for PTH antagonist: median of ninety patients, 5.5 μg intravenously every three days
Excerpt: PTH antagonist levels should be measured using an assay that either directly detects PTH antagonist (but not PTH agonist) or indirectly through a total PTH measurement that measures the sum of the PTH agonist and PTH antagonist. An indirect measurement subtracts the PTH agonist value from the total PTH value, deriving the PTH antagonist value. Thus, one should use a total PTH assay that is designed to have essentially 100% cross-reactivity with PTH antagonist and PTH agonist. For example, Scantibodies Laboratory Total Intact PTH Assay or Scantibodies Laboratory Intact PTH Assay are appropriate assays.
as §1, §2

[2] = 6 weeks versus 0 weeks, listed as PTH suppressant
[3] = 12 weeks versus 6 weeks, listed as PTH suppressant

C=C1/C(=C\C=C2/CCC[C@]3(C)[C@@H]([C@H](C)OCCC(C)(C)O)CC[C@@H]23)C[C@@H](O)C[C@@H]1O [maxacalcitol]
PTH agonist decrease (PTH agonist; 6 weeks versus 0 weeks): (41% decrease)
PTH agonist decrease (PTH agonist; [2]): 41%
PTH agonist decrease (PTH agonist; 12 weeks versus 6 weeks): (8% decrease)
PTH agonist decrease (PTH agonist; [3]): 8%
PTH agonist (PTH agonist; 6 weeks (0 weeks: 609)): 361 pg/mL
PTH agonist (PTH agonist; 12 weeks (0 weeks: 609)): 331 pg/mL
Alkaline Phosphatase decrease ([1]; 6 weeks versus 0 weeks): (13% decrease)
Alkaline Phosphatase decrease ([1]; 12 weeks versus 6 weeks): (16% decrease)
Alkaline Phosphatase ([1]; 6 weeks (0 weeks: 396)): 344 U/ml
Alkaline Phosphatase ([1]; 12 weeks (0 weeks: 396)): 290 U/ml
Total PTH decrease (Total PTH; 6 weeks versus 0 weeks): (41% decrease)
Total PTH decrease (Total PTH; [2]): 41%
Total PTH decrease (Total PTH; 12 weeks versus 6 weeks): (1% decrease)
Total PTH decrease (Total PTH; [3]): 0.8%
Total PTH (Total PTH; 6 weeks (0 weeks: 886)): 531 pg/mL
Total PTH (Total PTH; 12 weeks (0 weeks: 886)): 525 pg/mL
PTH antagonist decrease (PTH antagonist): (42% decrease)
PTH antagonist decrease (PTH antagonist; listed as PTH suppressant): 42%
PTH antagonist increase (PTH antagonist): (21% increase)
PTH antagonist increase (PTH antagonist; listed as PTH suppressant): 21%
PTH antagonist (PTH antagonist; 6 weeks (0 weeks: 276)): 160 pg/mL
PTH antagonist (PTH antagonist; 12 weeks (0 weeks: 276)): 194 pg/mL
